Results: patent US8703768B2, “Nitrogen containing heteroaryl compounds” (Hoffmann-La Roche Inc., priority 2010, dated 2014)

The compounds below were run against human PDE10A (Homo sapiens (Human), UniProt Q9Y233) (assay: human PDE10A full length Scintillation Proximity Assay (SPA)). Conditions: 50 nM cGMP and 50 nM [3H]-cGMP, 20 minutes at room temperature; read-out: PDE10A inhibition IC50.
Format: biochemical
How it was run: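 Radiometric SPA read-out: after 20 min at room temperature with [^3H]-cGMP/cGMP substrate, zinc sulphate (18 mM) bead stop reagent added and counts read after 1 h. Non-specific signal defined without enzyme; full-length protein used.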

Chain of human PDE10A (Q9Y233 other isoform, or with tags, fused parts or gaps): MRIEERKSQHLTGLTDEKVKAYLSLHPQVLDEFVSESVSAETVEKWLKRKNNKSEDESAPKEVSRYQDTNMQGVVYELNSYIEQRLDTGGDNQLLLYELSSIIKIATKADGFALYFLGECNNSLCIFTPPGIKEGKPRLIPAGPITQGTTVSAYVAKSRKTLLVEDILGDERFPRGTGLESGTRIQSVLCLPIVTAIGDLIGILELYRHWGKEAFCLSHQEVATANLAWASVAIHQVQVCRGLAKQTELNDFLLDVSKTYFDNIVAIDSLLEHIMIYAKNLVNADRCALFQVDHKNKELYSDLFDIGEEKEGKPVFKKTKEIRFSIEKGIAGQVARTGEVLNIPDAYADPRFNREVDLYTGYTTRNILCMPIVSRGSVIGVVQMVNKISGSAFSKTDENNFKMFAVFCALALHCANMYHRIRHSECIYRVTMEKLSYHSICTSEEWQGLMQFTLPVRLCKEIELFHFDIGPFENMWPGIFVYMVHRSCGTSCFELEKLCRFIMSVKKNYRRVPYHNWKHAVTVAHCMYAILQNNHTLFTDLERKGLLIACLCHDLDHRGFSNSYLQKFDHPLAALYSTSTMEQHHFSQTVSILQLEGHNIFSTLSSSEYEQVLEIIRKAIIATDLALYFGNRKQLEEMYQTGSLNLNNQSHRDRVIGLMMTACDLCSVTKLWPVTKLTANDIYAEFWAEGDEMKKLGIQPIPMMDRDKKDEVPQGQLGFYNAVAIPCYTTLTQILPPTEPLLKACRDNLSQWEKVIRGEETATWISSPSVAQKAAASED

Question: For `CC(C)(O)CNC(=O)c1cnccc1NC(=O)c1nc(C2CC2)cnc1Nc1cncnc1` [Example 120, 6-Cyclopropyl-3-(pyrimidin-5-ylamino)-pyrazine-2-carboxylic acid [3-(2-hydroxy-2-methyl-propylcarbamoyl)-pyridin-4-yl]-amide], which IC50 is on record?
Answer: Its IC50 is 0.4 nM.

Question: Which IC50 does the source give for `CC(C)(O)CNC(=O)c1ccc(F)cc1NC(=O)c1nc(C2CC2)cnc1Nc1cncnc1` [Example 301, 6-Cyclopropyl-3-(pyrimidin-5-ylamino)-pyrazine-2-carboxylic acid [5-fluoro-2-(2-hydroxy-2-methyl-propylcarbamoyl)-phenyl]-amide] here?
Answer: Its IC50 is 0.4 nM.

Question: For `CCNC(=O)c1c(NC(=O)c2nc(C3CC3)cnc2Nc2cncnc2)cnn1CC` [Example 201, 6-Cyclopropyl-3-(pyrimidin-5-ylamino)-pyrazine-2-carboxylic acid (1-ethyl-5-ethylcarbamoyl-1H-pyrazol-4-yl)-amide], which IC50 is on record?
Answer: The IC50 was 11.5 nM.

Question: `CNC(=O)c1c(NC(=O)c2nc(C(C)C)ncc2Nc2cccc(F)c2)cnn1C` [Example 188, 5-(3-Fluoro-phenylamino)-2-isopropyl-pyrimidine-4-carboxylic acid (1-methyl-5-methylcarbamoyl-1H-pyrazol-4-yl)-amide] was tested. Which IC50 did it give?
Answer: Its IC50 is 51.7 nM.

Question: Which IC50 does the source give for `CNC(=O)c1c(NC(=O)c2nc(N3CCN(C)CC3)cnc2Nc2cncnc2)cnn1C` [Example 333, 4-Methyl-5′-(pyrimidin-5-ylamino)-3,4,5,6-tetrahydro-2H-[1,2]bipyrazinyl-6′-carboxylic acid (1-methyl-5-methylcarbamoyl-1H-pyrazol-4-yl)-amide] here?
Answer: Its IC50 is 691 nM.

Question: With `O=C(NCC(O)CO)c1ccncc1NC(=O)c1nc(C2CC2)ccc1Nc1cncnc1` (stereo not shown) [Example 69, 6-Cyclopropyl-3-(pyrimidin-5-ylamino)-pyridine-2-carboxylic acid [4-(2,3-dihydroxy-propylcarbamoyl)-pyridin-3-yl]-amide] as the compound, how does the IC50 read?
Answer: Its IC50 is 4.1 nM.

Question: Which IC50 does the source give for `CN(C)C(=O)c1nn(CC(F)(F)F)cc1NC(=O)c1nc(C2CC2)ccc1Nc1cncnc1` [Example 7, 6-Cyclopropyl-3-(pyrimidin-5-ylamino)-pyridine-2-carboxylic acid [3-dimethylcarbamoyl-1-(2,2,2-trifluoro-ethyl)-1H-pyrazol-4-yl]-amide] here?
Answer: Its IC50 is 336 nM.

Question: With `CNC(=O)c1nn(C)cc1NC(=O)c1nc(CC(C)C)ncc1Nc1cncnc1` [Example 83, 2-Isobutyl-5-(pyrimidin-5-ylamino)-pyrimidine-4-carboxylic acid (1-methyl-3-methylcarbamoyl-1H-pyrazol-4-yl)-amide] as the compound, how does the IC50 read?
Answer: The IC50 was 5.5 nM.

Question: `CNC(=O)c1nn(C)cc1NC(=O)c1nc(C2CC2)cnc1Nc1cncnc1` [Example 5, 6-Cyclopropyl-3-(pyrimidin-5-ylamino)-pyrazine-2-carboxylic acid (1-methyl-3-methylcarbamoyl-1H-pyrazol-4-yl)-amide] was tested. Which IC50 did it give?
Answer: The IC50 was 5.2 nM.

Question: `CNC(=O)c1c(NC(=O)c2nc([C@@H]3CCOC3)cnc2Nc2cncnc2)cnn1C` [Example 267, 3-(Pyrimidin-5-ylamino)-6-(S)-tetrahydro-furan-3-yl-pyrazine-2-carboxylic acid (1-methyl-5-methylcarbamoyl-1H-pyrazol-4-yl)-amide] was tested. Which IC50 did it give?
Answer: Its IC50 is 7 nM.

Question: `CNC(=O)c1cc(OCCOC)ccc1NC(=O)c1nc(C2CC2)cnc1Nc1cncnc1` [Example 214, 6-Cyclopropyl-3-(pyrimidin-5-ylamino)-pyrazine-2-carboxylic acid [4-(2-methoxy-ethoxy)-2-methylcarbamoyl-phenyl]-amide] was tested. Which IC50 did it give?
Answer: Its IC50 is 1 nM.

Question: `CNC(=O)c1nn(C)cc1NC(=O)c1nc(C(C)C)ncc1Nc1cncnc1` [Example 75, 2-Isopropyl-5-(pyrimidin-5-ylamino)-pyrimidine-4-carboxylic acid (1-methyl-3-methylcarbamoyl-1H-pyrazol-4-yl)-amide] was tested. Which IC50 did it give?
Answer: The IC50 was 8.8 nM.

Question: For `CC(NC(=O)c1c(NC(=O)c2nc(C3CC3)cnc2Nc2cncnc2)cnn1C)C(F)(F)F` (stereo not shown) [Example 164, 6-Cyclopropyl-3-(pyrimidin-5-ylamino)-pyrazine-2-carboxylic acid [1-methyl-5-(2,2,2-trifluoro-1-methyl-ethylcarbamoyl)-1H-pyrazol-4-yl]-amide], which IC50 is on record?
Answer: The IC50 was 5.2 nM.

Question: With `CNC(=O)c1cccc(F)c1NC(=O)c1nc(C2CC2)cnc1Nc1cncnc1` [Example 290, 6-Cyclopropyl-3-(pyrimidin-5-ylamino)-pyrazine-2-carboxylic acid (2-fluoro-6-methylcarbamoyl-phenyl)-amide] as the compound, how does the IC50 read?
Answer: Its IC50 is 2.8 nM.

Question: How did the IC50 turn out when `Cn1cc(NC(=O)c2nc(C3CC3)ccc2Nc2cncnc2)c(C(=O)N2CCNC(=O)C2)n1` [Example 47, 6-Cyclopropyl-3-(pyrimidin-5-ylamino)-pyridine-2-carboxylic acid [1-methyl-3-(3-oxo-piperazine-1-carbonyl)-1H-pyrazol-4-yl]-amide] was run?
Answer: The IC50 was 13.2 nM.

Question: How did the IC50 turn out when `CCN(CCO)C(=O)c1c(NC(=O)c2nc(C3CC3)cnc2Nc2cncnc2)cnn1C` [Example 230, 6-Cyclopropyl-3-(pyrimidin-5-ylamino)-pyrazine-2-carboxylic acid {5-[ethyl-(2-hydroxy-ethyl)-carbamoyl]-1-methyl-1H-pyrazol-4-yl}-amide] was run?
Answer: Its IC50 is 118 nM.

Question: With `CC(C)(O)CNC(=O)c1cccc(F)c1NC(=O)c1nc(C2CC2)cnc1Nc1cncnc1` [Example 293, 6-Cyclopropyl-3-(pyrimidin-5-ylamino)-pyrazine-2-carboxylic acid [2-fluoro-6-(2-hydroxy-2-methyl-propylcarbamoyl)-phenyl]-amide] as the compound, how does the IC50 read?
Answer: Its IC50 is 6 nM.

Question: With `O=C(Nc1cccnc1C(=O)N1CCC1)c1nc(C2CC2)cnc1Nc1cncnc1` [Example 194, 6-Cyclopropyl-3-(pyrimidin-5-ylamino)-pyrazine-2-carboxylic acid [2-(azetidine-1-carbonyl)-pyridin-3-yl]-amide] as the compound, how does the IC50 read?
Answer: The IC50 was 5.5 nM.

Question: For `CNC(=O)c1nn(C)cc1NC(=O)c1nc(C2CCOC2)cnc1Nc1cncnc1` (stereo not shown) [Example 102, 3-(Pyrimidin-5-ylamino)-6-(tetrahydro-furan-3-yl)-pyrazine-2-carboxylic acid (1-methyl-3-methylcarbamoyl-1H-pyrazol-4-yl)-amide], which IC50 is on record?
Answer: The IC50 was 16.3 nM.

Question: `Cn1ncc(NC(=O)c2nc(C3CC3)cnc2Nc2cncnc2)c1C(=O)NCC(C)(C)O` [Example 119, 6-Cyclopropyl-3-(pyrimidin-5-ylamino)-pyrazine-2-carboxylic acid [5-(2-hydroxy-2-methyl-propylcarbamoyl)-1-methyl-1H-pyrazol-4-yl]-amide] was tested. Which IC50 did it give?
Answer: The IC50 was 4.5 nM.

Question: `CC(CO)NC(=O)c1nn(C)cc1NC(=O)c1nc(C2CC2)ccc1Nc1cncnc1` (stereo not shown) [Example 45, 6-Cyclopropyl-3-(pyrimidin-5-ylamino)-pyridine-2-carboxylic acid [3-(2-hydroxy-1-methyl-ethylcarbamoyl)-1-methyl-1H-pyrazol-4-yl]-amide] was tested. Which IC50 did it give?
Answer: Its IC50 is 17.1 nM.

Question: How did the IC50 turn out when `CNC(=O)c1c(NC(=O)c2nc(C3CCC3)ncc2Nc2cncnc2)cnn1C` [Example 193, 2-Cyclobutyl-5-(pyrimidin-5-ylamino)-pyrimidine-4-carboxylic acid (1-methyl-5-methylcarbamoyl-1H-pyrazol-4-yl)-amide] was run?
Answer: Its IC50 is 11.7 nM.

Question: For `CC(C)c1ncc(Nc2cncnc2)c(C(=O)Nc2cnccc2C(=O)NCC(C)(C)O)n1` [Example 92, 2-Isopropyl-5-(pyrimidin-5-ylamino)-pyrimidine-4-carboxylic acid [4-(2-hydroxy-2-methyl-propylcarbamoyl)-pyridin-3-yl]-amide], which IC50 is on record?
Answer: The IC50 was 6.4 nM.

Question: Which IC50 does the source give for `CN(C(=O)c1nn(C)cc1NC(=O)c1nc(C2CC2)ccc1Nc1cncnc1)C1CCCCC1` [Example 17, 6-Cyclopropyl-3-(pyrimidin-5-ylamino)-pyridine-2-carboxylic acid [3-(cyclohexyl-methyl-carbamoyl)-1-methyl-1H-pyrazol-4-yl]-amide] here?
Answer: Its IC50 is 12.6 nM.

Question: `COCC(C)NC(=O)c1ccncc1NC(=O)c1nc(C2CC2)ccc1Nc1cncnc1` (stereo not shown) [Example 72, 6-Cyclopropyl-3-(pyrimidin-5-ylamino)-pyridine-2-carboxylic acid [4-(2-methoxy-1-methyl-ethylcarbamoyl)-pyridin-3-yl]-amide] was tested. Which IC50 did it give?
Answer: Its IC50 is 4.2 nM.

Question: For `COc1cccc(NC(=O)c2nc(C3CC3)cnc2Nc2cncnc2)c1C(=O)N(C)C` [Example 206, 6-Cyclopropyl-3-(pyrimidin-5-ylamino)-pyrazine-2-carboxylic acid (2-dimethylcarbamoyl-3-methoxy-phenyl)-amide], which IC50 is on record?
Answer: The IC50 was 12.2 nM.

Question: Which IC50 does the source give for `COCCn1ncc(NC(=O)c2nc(C3CC3)ccc2Nc2cncnc2)c1C(=O)N(C)C` [Example 6, 6-Cyclopropyl-3-(pyrimidin-5-ylamino)-pyridine-2-carboxylic acid [5-dimethylcarbamoyl-1-(2-methoxy-ethyl)-1H-pyrazol-4-yl]-amide] here?
Answer: Its IC50 is 12.6 nM.

Question: How did the IC50 turn out when `CC(C)(O)CNC(=O)c1cc(OCCO)ccc1NC(=O)c1nc(C2CC2)cnc1Nc1cncnc1` [Example 215, 6-Cyclopropyl-3-(pyrimidin-5-ylamino)-pyrazine-2-carboxylic acid [4-(2-hydroxy-ethoxy)-2-(2-hydroxy-2-methyl-propylcarbamoyl)-phenyl]-amide] was run?
Answer: The IC50 was 0.5 nM.

Question: How did the IC50 turn out when `CC(C)(O)CNC(=O)c1c(NC(=O)c2nc(C3CC3)cnc2Nc2cncnc2)cnn1CC(F)(F)F` [Example 175, 6-Cyclopropyl-3-(pyrimidin-5-ylamino)-pyrazine-2-carboxylic acid [5-(2-hydroxy-2-methyl-propylcarbamoyl)-1-(2,2,2-trifluoro-ethyl)-1H-pyrazol-4-yl]-amide] was run?
Answer: Its IC50 is 25 nM.

Question: `CN1CCC(NC(=O)c2c(NC(=O)c3nc(C4CC4)cnc3Nc3cncnc3)cnn2C)CC1` [Example 242, 6-Cyclopropyl-3-(pyrimidin-5-ylamino)-pyrazine-2-carboxylic acid [1-methyl-5-(1-methyl-piperidin-4-ylcarbamoyl)-1H-pyrazol-4-yl]-amide] was tested. Which IC50 did it give?
Answer: The IC50 was 69.3 nM.

Question: For `CNC(=O)c1c(NC(=O)c2nc(C(C)=O)cnc2Nc2cncnc2)cnn1C` [Example 184, 6-Acetyl-3-(pyrimidin-5-ylamino)-pyrazine-2-carboxylic acid (1-methyl-5-methylcarbamoyl-1H-pyrazol-4-yl)-amide], which IC50 is on record?
Answer: The IC50 was 162 nM.
